Laboratory results published in US5616578A (priority 1993, dated 1997).

Key:
HIV strains = settings: time of AZT treatment after which resistant strains observed; cited from earlier work
[1] = AZT treatment of HIV positive individuals; cited from earlier work
in vitro = settings: human, mt-2 cells
Method: Cell viability was determined by the metabolism of the tetrazolium dye, XTT, 3,3'-[1-[phenylamino)carbonyl]-3,4-tetrazolium]bis-(4-methoxy-6-nitrobenzene-sulfonic acid(Sigma)(Scudiero et al., Cancer Res. 48:4827-4833 (1988)). In this assay metabolically active cells transform the tetrazolium dye, XTT, to a soluble colored formazan product. Microtiter plates (96 wells) were seeded with 1×10^5 cells/well and graded concentrations of test compounds in RPMI 1640 plus 5% FCS. Cells (MT-2) were allowed to grow at 36° C. in the presence of compounds for 3 days. To each well was added 0.05 ml of 1 mg XTT/ml in phosphate buffered saline (PBS) containing 0.025 mM phenazine methosulfate. Plates were incubated an additional four hours at 36° C. and the A450 was determined. The absorption was proportional to the number of viable cells in the well. The concentration of compound which produced a 50% reduction in the number of viable cells was designated the TC50.
In order to determine how these combinations affect cell viability, a cytotoxicity assay was conducted on combinations of the two compounds over the range 0.3-100 μg/ml and the TC50 s calculated.

Cc1cn([C@H]2C[C@H](N=[N+]=[N-])[C@@H](CO)O2)c(=O)[nH]c1=O [AZT, 3'-azido-3'-deoxythymidine]
AZT-resistant HIV strains observed (HIV strains): six | Toxicity [1]: frequently toxic, causing bone marrow suppression resulting in anemia, leukopenia and thrombocytopenia | CC50 at 72 h (in vitro): > 100 µg/mL
